{
  "source": "patent US20220142941A1",
  "about": "“COMBINATION THERAPEUTIC REGIMENS WITH 1,6-DIBROMO-1,6-DIDEOXY-DULCITOL” (Eleison Pharmaceuticals LLC, priority 2019, published 2022)",
  "key": {"[1]": {"test_system": "panel of 20 patient derived cell cultures", "experiment": "DBD combination treatment, overall result over the panel", "type": "cell-based, human", "experimental": "Crystalline DBD polymorph treatment was combined with chemotherapy, radiotherapy and targeted inhibitors to determine whether the crystalline DBD polymorph form could: enhance efficacy of the conventional therapies; enhance efficacy when combined with newer ‘targeted’ therapies; or would make (a subset of) cultures more sensitive to this treatment.\nTherefore, cultures were treated with: • a."}, "[2]": {"conditions": "reported in the literature; cited from earlier work"}, "GS184": {"test_system": "GS184", "experiment": "DBD dose-response IC50, patient derived GSC culture", "type": "cell-based", "conditions": "Homo sapiens", "experimental": "(§1) To assess the effects of crystalline DBD polymorph on the growth of patient derived GSC's (Glioma serum-free Stem-cell like cultures), dose-response assays were performed on twenty cultures. […] A dose-dependent decrease in viability was found, and the IC50 values of could be calculated using linear regression analysis. Specifically, looking at Table 1, a high variation of different IC50 values is seen in this panel of patient derived GSC's. In addition, no correlation is seen between the MGMT promotor methylation status and the amount of the IC50 value."}, "GS257": {"test_system": "GS257", "experiment": "DBD dose-response IC50, patient derived GSC culture", "type": "cell-based", "conditions": "Homo sapiens", "experimental": "as §1"}, "GS102peri": {"test_system": "GS102peri", "experiment": "DBD dose-response IC50, patient derived GSC culture", "type": "cell-based", "conditions": "Homo sapiens", "experimental": "as §1"}, "GS245": {"test_system": "GS245", "experiment": "DBD dose-response IC50, patient derived GSC culture", "type": "cell-based", "conditions": "Homo sapiens", "experimental": "as §1"}, "GS281": {"test_system": "GS281", "experiment": "DBD dose-response IC50, patient derived GSC culture", "type": "cell-based", "conditions": "Homo sapiens", "experimental": "as §1"}, "GS324core": {"test_system": "GS324core", "experiment": "DBD dose-response IC50, patient derived GSC culture", "type": "cell-based", "conditions": "Homo sapiens", "experimental": "as §1"}, "GS304": {"test_system": "GS304", "experiment": "DBD dose-response IC50, patient derived GSC culture", "type": "cell-based", "conditions": "Homo sapiens", "experimental": "as §1"}, "GS104peri": {"test_system": "GS104peri", "experiment": "DBD dose-response IC50, patient derived GSC culture", "type": "cell-based", "conditions": "Homo sapiens", "experimental": "as §1"}, "GS203": {"test_system": "GS203", "experiment": "DBD dose-response IC50, patient derived GSC culture", "type": "cell-based", "conditions": "Homo sapiens", "experimental": "as §1"}, "GS323peri": {"test_system": "GS323peri", "experiment": "DBD dose-response IC50, patient derived GSC culture", "type": "cell-based", "conditions": "Homo sapiens, 120 h, passage 17, day 5, read-out: IC50 5 d", "experimental": "as §1"}, "GS289": {"test_system": "GS289", "experiment": "DBD dose-response IC50, patient derived GSC culture", "type": "cell-based", "conditions": "Homo sapiens", "experimental": "as §1"}, "GS186peri": {"test_system": "GS186peri", "experiment": "DBD dose-response IC50, patient derived GSC culture", "type": "cell-based", "conditions": "Homo sapiens", "experimental": "as §1"}, "GS279core": {"test_system": "GS279core", "experiment": "DBD dose-response IC50, patient derived GSC culture", "type": "cell-based", "conditions": "Homo sapiens, 120 h, read-out: IC50 5 d", "experimental": "as §1"}, "GS261": {"test_system": "GS261", "experiment": "DBD dose-response IC50, patient derived GSC culture", "type": "cell-based", "conditions": "Homo sapiens", "experimental": "as §1"}, "GS249": {"test_system": "GS249", "experiment": "DBD dose-response IC50, patient derived GSC culture", "type": "cell-based", "conditions": "Homo sapiens", "experimental": "as §1"}, "GS279peri": {"test_system": "GS279peri", "experiment": "DBD dose-response IC50, patient derived GSC culture", "type": "cell-based", "conditions": "Homo sapiens", "experimental": "as §1"}, "GS224": {"test_system": "GS224", "experiment": "DBD dose-response IC50, patient derived GSC culture", "type": "cell-based", "conditions": "Homo sapiens", "experimental": "as §1"}, "GS359": {"test_system": "GS359", "experiment": "DBD dose-response IC50, patient derived GSC culture", "type": "cell-based", "conditions": "Homo sapiens", "experimental": "as §1"}, "GS365": {"test_system": "GS365", "experiment": "DBD dose-response IC50, patient derived GSC culture", "type": "cell-based", "conditions": "Homo sapiens", "experimental": "as §1"}, "GS186core": {"test_system": "GS186core", "experiment": "DBD dose-response IC50, patient derived GSC culture", "type": "cell-based", "conditions": "Homo sapiens", "experimental": "as §1"}, "[3]": {"conditions": "Kellner et al., Nature (1967); cited from earlier work"}, "T98 glioma cell line": {"test_system": "T98 glioma cell line", "experiment": "Cell Titer-Glo viability, DBD concentration range", "type": "cell-based, human", "conditions": "5 and 8 days", "experimental": "(§2) These lines were seeded in triplicate in a 96-wells plate, in a dilution of 500 cells/well. […] FIGS. 1 and 2 show the histogram results of the two used glioma cell lines, T98 and U373. Specifically, the histograms are normalized in percentages, where the non-treated cells have a 100% survival. […] However, a concentration range between 1 and 100 μM was selected and was next tested on twenty patient-derived serum-free cell cultures."}, "U373 glioma cell line": {"test_system": "U373 glioma cell line", "experiment": "Cell Titer-Glo viability, DBD concentration range", "type": "cell-based, human", "conditions": "5 and 8 days", "experimental": "as §2"}, "[4]": {"conditions": "120 h, passage 14, day 5, read-out: IC50 5 d"}, "[5]": {"conditions": "passage 14, day 8, read-out: IC50 8 d"}},
  "note": "Like-named read-outs stand apart in the source and are kept apart here.",
  "data": [
    {"smiles": "O[C@H]([C@H](O)[C@@H](O)CBr)[C@H](O)CBr", "note": "[DBD, 1,6-dibromo-1,6-dideoxy-dulcitol]", "values": [
      {"measurement": "enhancement of the cytotoxic effect", "setting": "[1]; combined with radiation treatment", "result": 30, "unit": "%"},
      {"measurement": "enhancement of the cytotoxic effect", "setting": "[1]; combined with temozolomide", "result": 50, "unit": "%"},
      {"measurement": "solubility", "setting": "[2]", "result": "poorly soluble"},
      {"measurement": "IC50", "setting": "GS184; 120 h, GS184, passage 15, day 5, read-out: IC50 5 d", "result": 18.6, "unit": "µM"},
      {"measurement": "IC50", "setting": "GS184; GS184, passage 15, day 8, read-out: IC50 8 d", "result": 1.96, "unit": "µM"},
      {"measurement": "IC50", "setting": "GS257; 120 h, GS257, passage 13, day 5, read-out: IC50 5 d", "result": 11.9, "unit": "µM"},
      {"measurement": "IC50", "setting": "GS257; GS257, passage 13, day 8, read-out: IC50 8 d", "result": 10.2, "unit": "µM"},
      {"measurement": "IC50", "setting": "GS102peri; 120 h, passage 18, day 5, read-out: IC50 5 d", "result": 41.8, "unit": "µM"},
      {"measurement": "IC50", "setting": "GS102peri; passage 18, day 8, read-out: IC50 8 d", "result": 11.9, "unit": "µM"},
      {"measurement": "IC50", "setting": "GS245; 120 h, GS245, passage 13, day 5, read-out: IC50 5 d", "result": 6.58, "unit": "µM"},
      {"measurement": "IC50", "setting": "GS245; GS245, passage 13, day 8, read-out: IC50 8 d", "result": 3.35, "unit": "µM"},
      {"measurement": "IC50", "setting": "GS281; 120 h, GS281, passage 13, day 5, read-out: IC50 5 d", "result": 10.6, "unit": "µM"},
      {"measurement": "IC50", "setting": "GS281; GS281, passage 13, day 8, read-out: IC50 8 d", "result": 5.55, "unit": "µM"},
      {"measurement": "IC50", "setting": "GS324core; 120 h, passage 16, day 5, read-out: IC50 5 d", "result": 8.96, "unit": "µM"},
      {"measurement": "IC50", "setting": "GS324core; passage 16, day 8, read-out: IC50 8 d", "result": 2.98, "unit": "µM"},
      {"measurement": "IC50", "setting": "GS304; 120 h, GS304, passage 14, day 5, read-out: IC50 5 d", "result": 106, "unit": "µM"},
      {"measurement": "IC50", "setting": "GS304; GS304, passage 14, day 8, read-out: IC50 8 d", "result": 12.2, "unit": "µM"},
      {"measurement": "IC50", "setting": "GS104peri; 120 h, passage 22, day 5, read-out: IC50 5 d", "result": 3.48, "unit": "µM"},
      {"measurement": "IC50", "setting": "GS104peri; passage 22, day 8, read-out: IC50 8 d", "result": 0.57, "unit": "µM"},
      {"measurement": "IC50", "setting": "GS203; 120 h, GS203, passage 20, day 5, read-out: IC50 5 d", "result": 28.7, "unit": "µM"},
      {"measurement": "IC50", "setting": "GS203; GS203, passage 20, day 8, read-out: IC50 8 d", "result": 10.5, "unit": "µM"},
      {"measurement": "IC50", "setting": "GS323peri", "result": 4.75, "unit": "µM"},
      {"measurement": "IC50", "setting": "GS289; 120 h, GS289, passage 13, day 5, read-out: IC50 5 d", "result": 6.88, "unit": "µM"},
      {"measurement": "IC50", "setting": "GS289; GS289, passage 13, day 8, read-out: IC50 8 d", "result": 3.22, "unit": "µM"},
      {"measurement": "IC50", "setting": "GS186peri; [4]", "result": 4.24, "unit": "µM"},
      {"measurement": "IC50", "setting": "GS186peri; [5]", "result": 2.28, "unit": "µM"},
      {"measurement": "IC50", "setting": "GS279core; GS279core (1), passage 13, day 5", "result": 3.6, "unit": "µM"},
      {"measurement": "IC50", "setting": "GS279core; GS279core (2), passage 16, day 5", "result": 7.64, "unit": "µM"},
      {"measurement": "IC50", "setting": "GS261; 120 h, GS261, passage 11, day 5, read-out: IC50 5 d", "result": 3.44, "unit": "µM"},
      {"measurement": "IC50", "setting": "GS261; GS261, passage 11, day 8, read-out: IC50 8 d", "result": 1.85, "unit": "µM"},
      {"measurement": "IC50", "setting": "GS249; 120 h, GS249, passage 18, day 5, read-out: IC50 5 d", "result": 0.63, "unit": "µM"},
      {"measurement": "IC50", "setting": "GS249; GS249, passage 18, day 8, read-out: IC50 8 d", "result": 0.24, "unit": "µM"},
      {"measurement": "IC50", "setting": "GS279peri; 120 h, passage 13, day 5, read-out: IC50 5 d", "result": 31.5, "unit": "µM"},
      {"measurement": "IC50", "setting": "GS279peri; passage 13, day 8, read-out: IC50 8 d", "result": 8.33, "unit": "µM"},
      {"measurement": "IC50", "setting": "GS224; 120 h, GS224, passage 17, day 5, read-out: IC50 5 d", "result": 33.3, "unit": "µM"},
      {"measurement": "IC50", "setting": "GS224; GS224, passage 17, day 8, read-out: IC50 8 d", "result": 10.9, "unit": "µM"},
      {"measurement": "IC50", "setting": "GS359; 120 h, GS359, passage 14, day 5, read-out: IC50 5 d", "result": 11.8, "unit": "µM"},
      {"measurement": "IC50", "setting": "GS359; GS359, passage 14, day 8, read-out: IC50 8 d", "result": 7.27, "unit": "µM"},
      {"measurement": "IC50", "setting": "GS365; 120 h, GS365, passage 14, day 5, read-out: IC50 5 d", "result": 14.6, "unit": "µM"},
      {"measurement": "IC50", "setting": "GS365; GS365, passage 14, day 8, read-out: IC50 8 d", "result": 5.69, "unit": "µM"},
      {"measurement": "IC50", "setting": "GS186core; [4]", "result": 4.56, "unit": "µM"},
      {"measurement": "IC50", "setting": "GS186core; [5]", "result": 1.94, "unit": "µM"},
      {"measurement": "antitumor effect", "setting": "[3]", "result": "selective a vigorous antitumor effect"},
      {"measurement": "effect on cell viability (percentage of living cells vs non-treated)", "setting": "T98 glioma cell line; 0.1 μM and 0.3 μM DBD", "result": "not effective"},
      {"measurement": "effect on cell viability (percentage of living cells vs non-treated)", "setting": "T98 glioma cell line; 300 μM DBD", "result": "not viable"},
      {"measurement": "effect on cell viability (percentage of living cells vs non-treated)", "setting": "U373 glioma cell line; 0.1 μM and 0.3 μM DBD", "result": "not effective"},
      {"measurement": "effect on cell viability (percentage of living cells vs non-treated)", "setting": "U373 glioma cell line; 300 μM DBD", "result": "not viable"}
    ]}
  ]
}
